As usually defined, the IC50 is the midpoint of a concentration-inhibition curve. Low readings indicate greater potency, high ones weaker potency. One may read the Kd as a measure of binding affinity in units of concentration. Read a high Kd as lower affinity.

“And” between values parts separate entries of the source, which are not always exact repeats. Identical values can stand only once.

This is an account of results in patent US20220160706A1, “PHARMACEUTICAL COMBINATION COMPRISING TNO155 AND A PD-1 INHIBITOR” (NOVARTIS AG, priority 2019, published 2022).

In data set [1] the test system is DETROIT-562 (pharyngeal squamous cell carcinoma) cancer cell line. Briefly: antiproliferation in DETROIT-562. It counts as cell-based. As to conditions: Homo sapiens; DETROIT-562 cells.
Data set [2] is described as follows: in vivo. As to conditions: mouse.
Data set [3] relates to phosphorylated ERK1/2 (pERK). Briefly: in vitro pERK inhibition in KYSE-520. It counts as cell-based. As to conditions: Homo sapiens; KYSE-520 cells. The text has this: (§1) SHP2 inhibition can be measured by assessing biomarkers within the MAPK signaling pathway, such as decreased levels of phosphorylated ERK1/2 (pERK) and downregulation of dual specificity phosphatase 6 (DUSP6) mRNA transcript.

In data set [4] the test system is KYSE-520 (esophageal squamous cell carcinoma) cancer cell line. The data set can be described thus: antiproliferation in KYSE-520. It counts as cell-based. As to conditions: Homo sapiens; KYSE-520 cells.
Text: as §1

The subject of data set [5] is EGFR-dependent DETROIT-562 cancer cell line. The data set can be described thus: in vivo SHP2 inhibition and efficacy, DETROIT-562 xenograft. As to conditions: oral 20 mg/kg.
Text: as §1

Data set [6] relates to phosphorylated ERK1/2 (pERK). The data set can be described thus: in vitro pERK inhibition in DETROIT-562. It counts as cell-based. As to conditions: Homo sapiens; DETROIT-562 cells.
Text: as §1

Data set [7] has as its system MC38 xenografts. The data set can be described thus: MC38 xenografts in immunocompromised NSG mice. It counts as in vivo, mouse.
The subject of data set [8] is MC38 cell line. Briefly: MC38 cell line in vitro proliferation/viability. It counts as cell-based, mouse. As to conditions: MC38 (PTPN11 G503V) in vitro, absence of immune cells.
The subject of data set [9] is CD14+ monocytes. Briefly: M-CSF stimulated proliferation of CD14+ monocytes (CellTiter-Glo). It counts as cell-based, human. As to conditions: 50 ng/mL M-CSF, 6 days incubation. How it is done: Investigation of the effect of TNO155 on M-CSF stimualted proliferation of CD14+ monocytes. Peripheral blood mononuclear cells (PBMC) were isolated from the whole blood of two donors (donor 1670 and […]) by CPT tubes and spinning at 1800 rpm for 20 minutes. CD14 positive monocytes were then isolated from PBMC using human Pan Monocyte Isolation Kit (Miltenyi Biotec #130-096-537). 5000 monocytes suspended in 100 μL RPMI media were seeded in 96 well plates with 50 ng/mL recombinant M-CSF. 24 hours later, TNO155 was added at the indicated final concentrations. A CellTiter-Glo® (CTG) cell viability assay was performed according to manufacturer's instructions using a separate plate with identically seeded cells and also performed for all plates after 6 days of incubation with TNO155. The Day 6 measurements were normalized with DMSO treated groups as 100% to evaluate the TNO155 effects on the M-CSF stimulated proliferation of monocytes and the Day 0 cell seeding measurement was indicated by the light dotted line.
Background: In ATP-based viability assays light output follows the ATP content of the culture.

Data set [10] deals with MC38 tumors. Briefly: MC38 syngeneic tumors in immune-competent C57BL/6 mice, anti-tumor activity. It counts as in vivo, mouse. As to conditions: day 14 post-first dose, TNO155 20 mg/kg BID, anti-PD1 10 mg/kg QW.
The subject of data set [11] is HNSCC. As to conditions: HNSCC patients progressed on platinum-based chemotherapy; cited from earlier work.
The subject of data set [12] is rodent PD-1. The data set can be described thus: cross-reactivity with rodent PD-1. It counts as binding.
Data set [13] deals with T1, human PD-1 (human, UniProt Q15116 25-167, limits assumed).
T1 construct: also called human PD1 antigen; Programmed Death 1
T1 sequence (Q15116 25-167 limits assumed): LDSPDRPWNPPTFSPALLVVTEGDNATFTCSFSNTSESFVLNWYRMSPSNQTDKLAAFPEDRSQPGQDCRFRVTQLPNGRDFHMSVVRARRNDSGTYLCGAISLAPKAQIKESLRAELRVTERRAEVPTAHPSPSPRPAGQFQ
The data set can be described thus: Biacore (SPR); format not stated. (Surface plasmon resonance follows binding to a sensor surface in real time, without labels.)

In data set [14] the test system is IL-2 production. It counts as cell-based. As to conditions: human blood ex vivo, super antigen stimulation with Staphylococcal enterotoxin B (SEB).

For the molecule `C[C@@H]1OCC2(CCN(c3cnc(Sc4ccnc(N)c4Cl)c(N)n3)CC2)[C@@H]1N` [TNO155, (3S,4S)-8-(6-amino-5-((2-amino-3-chloropyridin-4-yl)thio)pyrazin-2-yl)-3-methyl-2-oxa-8-azaspiro[4.5]decan-4-amine], the IC50 was 470 nM in data set [1]; 8 nM and 0.0034 µg/mL in data set [3]; 100 nM in [4]; 35 nM in data set [6]. In [2], the MTD came out at 20 mg/kg. In addition, in [5] (DETROIT-562 in vivo), the “decrease in DUSP6 mRNA transcript” value is on record as “approximately 95%”. In [5] (twice-daily schedule, DETROIT-562), this molecule registered a tumor regression of 47%. In data set [7] (20 mg/kg BID, MC38 in NSG mice), the anti-tumor activity result is given as “lack of anti-tumor activity”. Further, in [7] (MC38 with G503V mutation), the “impact on downstream MAPK-signaling markers (phospho-ERK, phospho-RSK) in tumor cells” value was “no impact”. Further, the “effect on cell proliferation or viability” value in data set [8] was “no effect on cell proliferation or viability”. Also, the “M-CSF stimulated proliferation of CD14+ monocytes” value in data set [9] was “blocked”. Further, in data set [10], the “treatment/control (T/C)” value worked out at 33.3%.
As to “nivolumab: anti-programmed death-1 (PD-1) antibody”, the “survival rate at one year” value in data set [11] is given as 36%.

B1: PDR001 (spartalizumab) (antibody, V domains shown)
VH: EVQLVQSGAEVKKPGESLRISCKGSGYTFTTYWMHWVRQATGQGLEWMGNIYPGTGGSNFDEKFKNRVTITADKSTSTAYMELSSLRSEDTAVYYCTRWTTGTGAYWGQGTTVTVSS
VL: EIVLTQSPATLSLSPGERATLSCKSSQSLLDSGNQKNFLTWYQQKPGQAPRLLIYWASTRESGVPSRFSGSGSGTDFTFTISSLEAEDAATYYCQNDYSYPYTFGQGTKVEIK
As for B1, in data set [12], the “cross-reactivity with rodent PD-1” value was “does not cross-react”. The affinity in data set [13], expressed as Kd, was 0.827 nM. For the same molecule, the “enhancement of IL-2 production” value in [14] was “approximately 2 fold”.
